We go through one compound from US20030017567A1, “Biological sample processing methods and compositions that include surfactants” (3M Innovative Properties Company, priority 2001, published 2003).

The target in data set [1] is T1, AMPLITAQ DNA polymerase (Taq polymerase) (Thermus aquaticus, UniProt P19821).
T1 construct: purchased Applied Biosystems, Foster City, Calif
Nature of the data set: PCR amplification of PERV protease fragment (327 bp) in presence of dye/surfactant; product on agarose gel or quantitated with Agilent 2100 Bioanalyzer. The format is biochemical. The protocol:
Typically, a fresh stock solution of 5 milligrams (mg) of a water-insoluble near-infrared dye (NIR dye) was dissolved in 50 microliters (μL) of dimethylsulfoxide (DMSO) and brought up in water to a final volume of 1 milliliter (mL). This was then diluted out to various concentrations of dye. The diluted dye (typically 0.2 mg/mL) was then added to a surfactant solution (typically 4 wt-%) to form a complex. The complex was added to a PCR reaction.
PCR reactions were set up for a conserved sequence (327 bp) in the protease region of the genome of porcine endogenous retrovirus using a plasmid containing the PERV protease fragment, a forward primer and a reverse primer designed using a primer express program from Applied Biosystems, and AMPLITAQ DNA polymerase cocktail (commercially available from Applied Biosystems, Foster City, Calif.) and cycled in a thermocycler (9700, Applied Biosystems). The PCR reactions were typically carried out in 25-μL volumes. The NIR dye/surfactant mixture was added to the PCR cocktail to give the desired concentration of dye and surfactant in a total volume of 25 μL. A typical PCR cocktail contains 10x buffer, 2.5 μL; dNTPs, 2.0 μL (200 μM of each); forward primer, 0.5 μL (200 nM); reverse primer, 0.5 μL (200 nM); template DNA, 1.0 (1 ng/μL); Amplitaq, 0.25 μL (1.25 units); sterile water, 18.25 μL.
The products of PCR reactions were run on 1% agarose gel containing ethidium bromide and visualized using an ALPHA IMAGER (Alpha Innotech Corp., San Leandro, Calif.). […] However, a higher concentration of dye (0.1 mg/mL) for effective heating was needed. Thus, for all further PCR experiments, a dye concentration of 0.1 mg/mL or higher was used. […] Taq polymerase was tested from different manufacturers (Promega Corp., Madison, Wis.; Roche Biochemicals, Indianapolis, Ind.; Eppendorf, Scientific Inc., Westbury, N.Y.; Sigma, St. Louis, Mo.) and all the Taq polymerases were inhibited by 785 WS and SDA 8080.
In order to find out the optimum concentration of surfactant for PCR with NIR dye (785 WS and SDA 8080), the surfactant concentration in PCR reaction was varied from 0.1 wt-% to 4 wt-%. The PCR product formed was quantitated using DNA 7500 Labchip kit in Agilent 2100 Bioanalyzer (Agilent Inc, Paloalto, Calif.). The results shown in Table 3 indicate that increasing the concentration of surfactant relative to dye assists in the formation of PCR product.
A variety of dyes (NIR dyes such as IR782, IR768, SDA 2141, SDA8327, IR 830 WS, fluorescent dyes like oligreen and visible dyes like dichlorophenol, indophenol, saffranin, crystal violet, and commercially available food coloring) at typical concentrations of 0.1 or 0.2 mg/mL were allowed to interact with 4 wt-% PLURONIC F127 and each mixture was added to the PCR cocktail. The reaction was set up to amplify PERV protease fragment as described in Example 2 and the products of the reaction were analyzed by agarose gel electrophoresis.

Data set [2] has as its target Taq polymerase (Thermus aquaticus, UniProt P19821). Nature of the data set: Quantitative PCR using TaqMan probes or Sybr green. The format is biochemical. Particulars: with SDA 8080 0.2 mg/mL or 785 WS 0.1 mg/mL, both cases. (Real-time PCR tracks product formation cycle by cycle.)
Data set [3] deals with T2, T4 DNA ligase (Enterobacteria phage T4, UniProt P00970).
T2 construct: purchased Life Technologies, Inc, Gaithesburg, Md
T2 sequence (P00970 1-487): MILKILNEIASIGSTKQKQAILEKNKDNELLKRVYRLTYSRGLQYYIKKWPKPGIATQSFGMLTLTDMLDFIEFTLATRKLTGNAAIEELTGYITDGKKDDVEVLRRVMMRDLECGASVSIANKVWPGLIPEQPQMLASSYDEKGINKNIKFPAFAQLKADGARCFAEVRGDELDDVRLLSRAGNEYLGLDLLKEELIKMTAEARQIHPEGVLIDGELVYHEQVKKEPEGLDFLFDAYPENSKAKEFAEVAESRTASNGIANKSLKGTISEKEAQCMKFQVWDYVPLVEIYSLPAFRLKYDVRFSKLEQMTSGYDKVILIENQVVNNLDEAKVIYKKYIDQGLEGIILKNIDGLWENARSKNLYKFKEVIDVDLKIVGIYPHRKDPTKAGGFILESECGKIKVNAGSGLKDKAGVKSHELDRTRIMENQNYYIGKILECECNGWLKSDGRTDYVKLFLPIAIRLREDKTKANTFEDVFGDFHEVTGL
Nature of the data set: DNA ligation reaction, read out by E. coli DH10B transformant colonies and by PCR of ligated products. The format is biochemical. Particulars: 4 wt-% PLURONIC for 785 WS; 4 wt-% TWEEN-20 for SDA 8080; similar number of colonies as control. On the procedure: DNA ligation reactions were set up using T4 DNA ligase (Life Technologies, Inc, Gaithesburg, Md.) using a linearized plasmid template (pET21a, Novagen, Madison, Wis.) and a DNA insert. The reagents were used according to manufacturer's instructions. Escherichia coli DH10B competent cells were transformed with the ligated products and transformed cells were plated on Clondisc (Clontech, Palo Alto, Calif.) with appropriate antibiotic (ampicillin at 50 μg/mL). After incubation of plates at 37° C. for 16 hours to 18 hours, the resulting colonies were counted and analysed for plasmid by miniprep and restriction digest. […] In addition, all of the plasmids isolated from these plates contained the same insert as verified by restriction digest and DNA sequencing.
In addition to transformation and plating with the ligation mix, the ligated products were used as DNA template in a PCR reaction containing primers flanking the insert DNA on the plasmid template (T7 promoter and T7 terminator primers, Novagen).

Data set [4] in a line: Laser stability / photobleaching of dye solution on repeated laser exposure. The format is physicochemical. Particulars: SDA 8080 (0.2 mg/mL), surfactant 20 wt %; 25 exposures. The protocol:
An 813-nm diode laser source at 1.2W (1.9A) (Opto Power Corp., Tucson, Ariz. ) was used to heat a 10μL volume of near-IR dye at a concentration (0.1 mg/mL for 785 WS, 0.2 mg/iL for SDA 8080) to yield a 35° C. rise in temperature. The laser was manually turned on long enough for the temperature in a 10-μL well to increase by 35° C. (1-3 seconds) and was manually turned off when that level was attained. The temperature data was obtained using a thermocouple in the well, and the transmittance data was obtained via a power meter whose signals were digitized and graphically interpreted.
In another experiment, the 10 μL well was used to see if the dye/surfactant mixture could withstand laser cycling over a period of 30 cycles. The laser power was systematically varied from 60° C. to 94° C., 30 times.
Unlike in Example 8, some dyes and dye/surfactant complexes undergo photodegradation when exposed to laser beam. […] Specifically, in the case of 785 WS/BRIJ-97, the addition of ascorbic acid (typically 5 mg/mL) helped reduce the amount of photobleaching from 100% to 20% after 30 cycles. In some circumstances, rapid/controlled photodegradation may be desired. […] This would allow DNA tags (fluorescent or vis/IR) to be monitored at the end of the PCR reaction.
Vitamin E-TPGS has both surfactant as well as antioxidant properties.

Marks after values point to notes of the source that are not given here.

T1 sequence (P19821 whole entry): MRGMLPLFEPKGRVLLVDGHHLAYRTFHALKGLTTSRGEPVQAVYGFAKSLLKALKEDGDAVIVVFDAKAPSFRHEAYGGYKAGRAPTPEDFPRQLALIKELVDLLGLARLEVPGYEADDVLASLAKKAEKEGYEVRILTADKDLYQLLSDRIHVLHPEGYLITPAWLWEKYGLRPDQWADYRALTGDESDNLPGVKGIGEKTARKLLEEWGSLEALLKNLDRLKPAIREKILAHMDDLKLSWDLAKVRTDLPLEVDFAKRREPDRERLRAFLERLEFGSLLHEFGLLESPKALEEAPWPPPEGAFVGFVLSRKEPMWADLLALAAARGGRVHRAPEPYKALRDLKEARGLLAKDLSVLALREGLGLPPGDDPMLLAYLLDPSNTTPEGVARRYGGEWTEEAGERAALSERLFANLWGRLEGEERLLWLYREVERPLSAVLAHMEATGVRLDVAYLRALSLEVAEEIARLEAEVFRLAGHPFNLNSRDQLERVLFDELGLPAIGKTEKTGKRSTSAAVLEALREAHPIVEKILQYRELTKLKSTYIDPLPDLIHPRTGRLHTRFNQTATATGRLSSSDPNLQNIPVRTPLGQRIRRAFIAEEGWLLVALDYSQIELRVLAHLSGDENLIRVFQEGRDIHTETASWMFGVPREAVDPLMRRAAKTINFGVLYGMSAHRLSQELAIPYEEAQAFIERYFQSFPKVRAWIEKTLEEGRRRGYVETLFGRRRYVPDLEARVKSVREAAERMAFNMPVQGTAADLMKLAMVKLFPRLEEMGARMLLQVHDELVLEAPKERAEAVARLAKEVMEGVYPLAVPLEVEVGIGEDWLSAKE
Taq polymerase, sequence (P19821 whole entry): as above

Regarding `CCCCCCCCCCCC(=O)OCCOCCOCCOCCOCCOCCOCCOCCOCCOCCOCCOCCOCCOCCOCCOCCOCCOCCOCCOCCOCC(OCCOCCOCCOCCOCCOCCOCCOCCOCCOCCOCCOCCOCCOCCOCCOCCOCCOCCOCCOCCO)C1OCC(OCCOCCOCCOCCOCCOCCOCCOCCOCCOCCOCCOCCOCCOCCOCCOCCOCCOCCOCCOCCO)C1OCCOCCOCCOCCOCCOCCOCCOCCOCCOCCOCCOCCOCCOCCOCCOCCOCCOCCOCCOCCO` (stereo not shown) [TWEEN-20, Polyoxyethylene (20) sorbitan monolaurate], the “PCR Product” value in data set [1] (785 WS 0.1 mg/mL, surfactant 0.1 wt %) turned out to be 0 ng/µL; in data set [1] (785 WS 0.1 mg/mL, surfactant 0.5 wt %), 12.7 ng/µL; in data set [1] (785 WS 0.1 mg/mL, surfactant 1 wt %), 19 ng/µL; in data set [1] (785 WS 0.1 mg/mL, surfactant 2 wt %), 23.7 ng/µL; in data set [1] (785 WS 0.1 mg/mL, surfactant 4 wt %), 24 ng/µL; in data set [1] (SDA 8080 0.2 mg/mL, surfactant 0.1 wt %), 27 ng/µL. Besides, the “PCR Product” value in data set [1] (SDA 8080 0.2 mg/mL, surfactant 0.5 wt %) was 29 ng/µL; in data set [1] (SDA 8080 0.2 mg/mL, surfactant 1 wt %), 31 ng/µL; in data set [1] (SDA 8080 0.2 mg/mL, surfactant 2 wt %), 22 ng/µL; in data set [1] (SDA 8080 0.2 mg/mL, surfactant 4 wt %) it was 19 ng/µL; in data set [1] (surfactant 4 wt %, 785 WS 0 mg/mL (no dye), data from a different experiment under identical PCR conditions), 28* ng/μL; in data set [1] (surfactant 4 wt %, SDA 8080 0 mg/mL (no dye), data from a different experiment under identical PCR conditions), 28* ng/μL. Further, in data set [1] (Taq polymerases inhibited by 785 WS and SDA 8080), the “effect of addition of surfactant on dye-inhibited Taq polymerase” value is “restored the activity of the enzyme”. Besides, the “effect of addition of surfactant on dye-inhibited quantitative PCR assay” value in data set [2] was “restored the activity of the assay”. Further, in data set [3], the “effect of surfactant on dye-inhibited ligase activity (colonies)” value is reported as “restored the activity of ligase”. In addition, the “Laser Stability” value in data set [4] is listed as “+ (less than a 20% degradation in dye absorbance over a period of 25 exposures)”.
